# Data: ChEMBL document CHEMBL1268866, “Factor Xa inhibitors: next-generation antithrombotic agents” (J Med Chem, 2010)
# Legend:
# [1] = Oral bioavailability in rat; format: ADME, organism-based; conditions: in vivo
# [2] = Clearance in monkey; format: ADME, organism-based, Macaca mulatta; conditions: rhesus monkey, in vivo
# in vivo [3] = conditions: dog, po
# [4] = Oral bioavailability in monkey; conditions: in vivo
# [5] = Volume of distribution at steady state in monkey; format: ADME, organism-based, Macaca mulatta; conditions: rhesus monkey, in vivo; read-out: Vdss
# [6] = Half life in monkey; format: ADME, organism-based, Macaca mulatta; conditions: rhesus monkey, in vivo
# [7] = Volume of distribution at steady state in rat; format: ADME, organism-based; conditions: in vivo, read-out: Vdss
# [8] = Half life in rat; format: ADME, organism-based; conditions: in vivo
# [9] = (§1) Clearance in rat; format: ADME, organism-based; conditions: in vivo
# in vivo [10] = conditions: dog
# in vivo [11] = conditions: dog; remark: listed apart in the source
# [12] = Drug excretion in rat urine; format: ADME; conditions: read-out: Activity
# [13] = Drug excretion in dog urine; format: ADME, Canis lupus familiaris; conditions: read-out: Activity
# [14] = Drug excretion in rat feces; format: ADME, tissue-based; conditions: faeces, read-out: Activity
# [15] = Drug excretion in dog feces; format: ADME, tissue-based, Canis lupus familiaris; conditions: faeces, read-out: Activity
# [16] = Tmax in po dosed human; format: ADME, organism-based; conditions: in vivo
# in vivo [17] = conditions: dog; remark: listed apart in the source
# Canis familiaris = species: Canis familiaris; assay: Plasma concentration in dog; format: ADME, organism-based, Canis lupus familiaris; conditions: in vivo
# [18] = Drug excretion in human urine; format: ADME, tissue-based; conditions: read-out: Activity
# [19] = Volume of distribution in chimpanzee; format: ADME, organism-based, Pan troglodytes; conditions: in vivo
# [20] = Oral bioavailability in chimpanzee; format: ADME, organism-based, Pan troglodytes; conditions: in vivo
# [21] = Drug excretion in human feces; format: ADME, tissue-based; conditions: faeces, read-out: Activity
# [22] = Half life in po dosed human; format: ADME, organism-based; conditions: in vivo
# Rattus norvegicus = species: Rattus norvegicus; assay: as §1; format: ADME, organism-based; conditions: in vivo
# [23] = Clearance in human; format: ADME, organism-based; conditions: in vivo
# [24] = Half life in human; format: ADME, organism-based; conditions: in vivo
smiles,measurement,setting,value
Cc1cc2cc(N=C(NC#N)N[C@H]3CCCCN(CC(=O)N4CCCC4)C3=O)ccc2o1,bioavailability,[1],50%
COC[C@@H](NC(=O)c1ccc(Cl)s1)C(=O)Nc1ccc(N2CCOCC2=O)c(C)c1,clearance,[2],4.17 mL/min/kg
same,bioavailability,in vivo [3],60%
same,bioavailability,[1],60%
same,bioavailability,[4],80%
CN1CCc2nc(C(=O)N[C@@H]3C[C@@H](C(=O)N(C)C)CC[C@@H]3NC(=O)c3cc4cc(Cl)ccc4[nH]3)sc2C1,clearance,[2],12.4 mL/min/kg
same,Vd,[5],1.49 L/kg
same,half-life,[6],1.5 h
CN(C)Cc1nccn1-c1ccc(N2CC[C@H](NS(=O)(=O)/C=C/c3ccc(Cl)s3)C2=O)c(F)c1,Vd,[7],0.6 L/kg
same,half-life,[8],1 h
same,bioavailability,[1],52%
same,clearance,[9],13 mL/min/kg
O=C(NC[C@H]1CN(c2ccc(N3CCOCC3=O)cc2)C(=O)O1)c1ccc(Cl)s1 [RIVAROXABAN],half-life,in vivo [10],0.9 h
same,clearance,in vivo [11],5 mL/min/kg
same,dose excreted,[12],25%
same,Vd,[7],0.3 L/kg
same,dose excreted,[13],52%
same,half-life,[8],1.2 h
same,dose excreted,[14],67%
same,bioavailability,in vivo [3],60%
same,dose excreted,[15],43%
same,Tmax,[16],1.3 h
same,bioavailability,[1],57%
same,Vd,in vivo [17],0.4 L/kg
O=C(Nc1ccc(-n2ccccc2=O)cn1)[C@H]1C[C@](O)(c2ccc(F)cc2F)CN1C(=O)Nc1ccc(Cl)cc1,half-life,in vivo [10],12.6 h
CO[C@@H]1C[C@H](C(=O)Nc2ccc(-c3ccccc3S(C)(=O)=O)cc2F)N(C(=O)Nc2ccc(Cl)cc2)C1,bioavailability,[1],28%
CS(=O)(=O)c1cc(F)ccc1N1CCN(C(=O)[C@H](NC(=O)c2ccc3ccnc(N)c3c2)c2ccccc2)CC1,bioavailability,[1],27%
O=C1CN(S(=O)(=O)/C=C/c2ccc(Cl)s2)CCN1Cc1cc2c[nH]ccc-2n1,half-life,in vivo [10],0.867 h
same,bioavailability,in vivo [3],97%
CN1CCC(N2CCN(C(=O)[C@H](NC(=O)c3ccc4cc[nH]c4c3)c3ccccc3)CC2)CC1 [LY-517717],half-life,in vivo [10],7 h
same,half-life,[8],7 h
same,bioavailability,in vivo [3],25%
same,bioavailability,[1],25%
CN1CCc2nc(C(=O)N[C@@H]3C[C@@H](C(=O)N(C)C)CC[C@@H]3NC(=O)C(=O)Nc3ccc(Cl)cn3)sc2C1 [EDOXABAN],bioavailability,[4],50%
CN(C)Cc1ccccc1-c1ccc(C(=O)Nc2ccc(Cl)cc2C(=O)Nc2ccc(Cl)cn2)cc1,bioavailability,[1],100%
Nc1nccc2ccc(CN3CC[C@H](NS(=O)(=O)c4cc5ncccc5s4)C3=O)cc12,bioavailability,in vivo [3],33%
same,concentration,Canis familiaris,2700 nM
CN(C)Cc1ccc(C(=O)Nc2ccc(Cl)cc2C(=O)Nc2ccc(Cl)cn2)cc1,Vd,[7],33 L/kg
same,bioavailability,[1],100%
CO[C@@H]1C[C@H](C(=O)Nc2ccc(-n3ccccc3=O)cc2F)N(C(=O)Nc2ccc(Cl)cc2)C1 [ERIBAXABAN],clearance,in vivo [11],2.5 mL/min/kg
same,bioavailability,in vivo [3],41%
same,bioavailability,[1],82%
same,Vd,in vivo [17],0.87 L/kg
O=C1CN(S(=O)(=O)c2cc3ccc(Cl)cc3s2)CCN1Cc1cc2c[nH]ccc-2n1,half-life,in vivo [10],0.6 h
same,bioavailability,in vivo [3],46%
CC(=N)N1CCC(Oc2ccc(N(Cc3ccc4ccc(C(=N)N)cc4c3)S(=O)(=O)CC(=O)O)cc2)CC1 [YM-60828],bioavailability,[4],20%
CCCCOC(=O)COc1cc(-c2ccccc2S(C)(=O)=O)ccc1CCNS(=O)(=O)c1cc(C(=N)NO)ccc1O,bioavailability,[1],15%
CN(C)Cc1nccn1-c1ccc(NC(=O)c2cc(C(F)(F)F)nn2-c2ccc3onc(N)c3c2)cc1,half-life,in vivo [10],1.6 h
same,clearance,in vivo [11],41.7 mL/min/kg
same,bioavailability,in vivo [3],16%
same,Vd,in vivo [17],4.5 L/kg
NCc1ccccc1-n1nc(C(F)(F)F)cc1C(=O)Nc1ccc(-c2ccccc2S(N)(=O)=O)cc1F,bioavailability,in vivo [3],100%
COc1ccc(-n2nc(C(N)=O)c3c2C(=O)N(c2ccc(N4CCCCC4=O)cc2)CC3)cc1 [APIXABAN],clearance,in vivo [11],0.333 mL/min/kg
same,dose excreted,[18],25%
same,Vd,[7],0.31 L/kg
same,Vd,[19],0.17 L/kg
same,bioavailability,[20],51%
same,dose excreted,[21],47%
same,half-life,[22],8 h
same,bioavailability,in vivo [3],> 50%
same,Vd,in vivo [17],0.2 L/kg
same,clearance,Rattus norvegicus,4.33 mL/min/kg
CS(=O)(=O)c1ccccc1-c1ccc(NC(=O)[C@H]2C[C@@H](O)CN2C(=O)Nc2ccc(Cl)cc2)c(F)c1,bioavailability,[1],17%
Cc1cc(C(=O)Nc2ccc(-n3ccnc3CN(C)C)cc2F)n(-c2ccc3cc(Cl)ccc3c2)n1,half-life,[8],7.2 h
same,bioavailability,[1],35%
CC(=N)N1CC[C@H](Oc2ccc([C@H](Cc3ccc4ccc(C(=N)N)cc4c3)C(=O)O)cc2)C1 [DX-9065A],clearance,[23],120 mL/min
same,half-life,[24],> 20 h
Cc1ncc2n1C(=O)N(C1CCN(C(=O)CCS(=O)(=O)c3ccc4cc(Cl)ccc4c3)CC1)C2,bioavailability,[4],46%
O=C([C@H](O)CS(=O)(=O)c1ccc2cc(Cl)ccc2c1)N1CCC(N2CCCNC2=O)CC1 [LETAXABAN],clearance,[2],11.8 mL/min/kg
same,Vd,[5],0.579 L/kg
same,bioavailability,[4],52.5%
CN(C)C(=N)c1ccc(NC(=O)c2cc(C(F)(F)F)nn2-c2cc3ccccc3cc2F)c(F)c1,bioavailability,[1],47%
